Source: PubChem BioAssay (NCI)
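Cultured in 96-well plates, cells were exposed to test compound for 48 hours across five concentrations. GI50 = concentration required for 50% inhibition of growth. TGI is the concentration that stops growth completely.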

Assays:
Assay in all cases: NCI tumour cell line growth inhibition, 48 h
786-0 renal = test system: 786-0 renal
A498 renal = test system: A498 renal
A549 NSCLC = test system: A549 NSCLC
ACHN renal = test system: ACHN renal
BT-549 breast = test system: BT-549 breast
CAKI-1 renal = test system: CAKI-1 renal
CCRF-CEM leukemia = test system: CCRF-CEM leukemia
COLO 205 colon = test system: COLO 205 colon
DU-145 prostate = test system: DU-145 prostate
EKVX NSCLC = test system: EKVX NSCLC
HCC-2998 colon = test system: HCC-2998 colon
HCT-116 colon = test system: HCT-116 colon
HCT-15 colon = test system: HCT-15 colon
HL-60(TB) leukemia = test system: HL-60(TB) leukemia
HOP-62 NSCLC = test system: HOP-62 NSCLC
HOP-92 NSCLC = test system: HOP-92 NSCLC
HS 578T breast = test system: HS 578T breast
HT29 colon = test system: HT29 colon
IGROV1 ovarian = test system: IGROV1 ovarian
K-562 leukemia = test system: K-562 leukemia
KM12 colon = test system: KM12 colon
LOX IMVI melanoma = test system: LOX IMVI melanoma
M14 melanoma = test system: M14 melanoma
MALME-3M melanoma = test system: MALME-3M melanoma
MCF7 breast = test system: MCF7 breast
MDA-MB-231 breast = test system: MDA-MB-231 breast
MDA-MB-435 = test system: MDA-MB-435
MOLT-4 leukemia = test system: MOLT-4 leukemia
NCI-H226 lung = test system: NCI-H226 lung
NCI-H23 lung = test system: NCI-H23 lung
NCI-H460 lung = test system: NCI-H460 lung
NCI-H522 lung = test system: NCI-H522 lung
NCI/ADR-RES ovarian = test system: NCI/ADR-RES ovarian
OVCAR-3 ovarian = test system: OVCAR-3 ovarian
OVCAR-4 ovarian = test system: OVCAR-4 ovarian
OVCAR-5 ovarian = test system: OVCAR-5 ovarian
OVCAR-8 ovarian = test system: OVCAR-8 ovarian
PC-3 prostate = test system: PC-3 prostate
RPMI-8226 leukemia = test system: RPMI-8226 leukemia
SF-268 CNS = test system: SF-268 CNS
SF-295 CNS = test system: SF-295 CNS
SF-539 CNS = test system: SF-539 CNS
SK-MEL-2 melanoma = test system: SK-MEL-2 melanoma
SK-MEL-28 melanoma = test system: SK-MEL-28 melanoma
SK-MEL-5 melanoma = test system: SK-MEL-5 melanoma
SK-OV-3 ovarian = test system: SK-OV-3 ovarian
SN12C renal = test system: SN12C renal
SNB-19 CNS = test system: SNB-19 CNS
SNB-75 CNS = test system: SNB-75 CNS
SR leukemia = test system: SR leukemia
SW-620 colon = test system: SW-620 colon
T-47D breast = test system: T-47D breast
TK-10 renal = test system: TK-10 renal
U251 CNS = test system: U251 CNS
UACC-257 melanoma = test system: UACC-257 melanoma
UACC-62 melanoma = test system: UACC-62 melanoma
UO-31 renal = test system: UO-31 renal

In the case of COc1ccc([C@H]2[C@H](O)C(=O)N2c2cc(OC)c(OC)c(OC)c2)cc1, the GI50 (786-0 renal) was less than 17.8 nM, the TGI (786-0 renal) was greater than 100000 nM and the GI50 (A498 renal) was greater than 100000 nM. It also gave a TGI (A498 renal) greater than 100000 nM, a GI50 (A549 NSCLC) of less than 13.2 nM and a TGI (A549 NSCLC) greater than 100000 nM. For the same compound, the GI50 (ACHN renal) was less than 10 nM, the TGI (ACHN renal) was greater than 100000 nM and the GI50 (BT-549 breast) was less than 13.7 nM. The TGI (BT-549 breast) was 288 nM, the GI50 (CAKI-1 renal) was less than 10 nM and the TGI (CAKI-1 renal) was greater than 100000 nM. For the same compound, the GI50 (CCRF-CEM leukemia) was less than 10 nM, the TGI (CCRF-CEM leukemia) was greater than 100000 nM and the GI50 (COLO 205 colon) was less than 13.2 nM. The TGI (COLO 205 colon) was less than 20.9 nM, the GI50 (DU-145 prostate) was less than 10.9 nM and the TGI (EKVX NSCLC) was greater than 100000 nM. For the same compound, the GI50 (HCC-2998 colon) was less than 15.8 nM, the TGI (HCC-2998 colon) was greater than 100000 nM and the GI50 (HCT-116 colon) was less than 10 nM. The TGI (HCT-116 colon) was greater than 100000 nM, the GI50 (HCT-15 colon) was less than 10.3 nM and the TGI (HCT-15 colon) was greater than 100000 nM. For the same compound, the GI50 (HL-60(TB) leukemia) was less than 10 nM, the TGI (HL-60(TB) leukemia) was less than 17.2 nM and the GI50 (HOP-62 NSCLC) was less than 19.9 nM. It also gave a TGI (HOP-62 NSCLC) greater than 100000 nM, a TGI (HOP-92 NSCLC) greater than 100000 nM and a GI50 (HS 578T breast) of less than 11.1 nM. It also gave a TGI (HS 578T breast) greater than 100000 nM, a GI50 (HT29 colon) of less than 10 nM and a GI50 (IGROV1 ovarian) of less than 10.8 nM. The TGI (IGROV1 ovarian) was greater than 100000 nM, the GI50 (K-562 leukemia) was less than 10 nM and the TGI (K-562 leukemia) was greater than 100000 nM. For the same compound, the GI50 (KM12 colon) was less than 10 nM, the TGI (KM12 colon) was greater than 100000 nM and the GI50 (LOX IMVI melanoma) was less than 10 nM. The TGI (LOX IMVI melanoma) was greater than 100000 nM, the GI50 (M14 melanoma) was less than 12.7 nM and the TGI (M14 melanoma) was greater than 100000 nM. For the same compound, the TGI (MALME-3M melanoma) was greater than 100000 nM, the GI50 (MCF7 breast) was less than 10 nM and the TGI (MCF7 breast) was greater than 100000 nM. The GI50 (MDA-MB-231 breast) was less than 16.2 nM, the TGI (MDA-MB-231 breast) was greater than 100000 nM and the GI50 (MDA-MB-435) was less than 10 nM. The TGI (MDA-MB-435) was less than 10 nM, the GI50 (MOLT-4 leukemia) was less than 16.8 nM and the TGI (MOLT-4 leukemia) was greater than 100000 nM. It also gave a GI50 (NCI-H226 lung) of less than 10 nM, a TGI (NCI-H226 lung) greater than 100000 nM and a GI50 (NCI-H23 lung) of 11 nM. For the same compound, the TGI (NCI-H23 lung) was greater than 100000 nM, the GI50 (NCI-H460 lung) was less than 13.3 nM and the TGI (NCI-H460 lung) was greater than 34300 nM. For the same compound, the GI50 (NCI-H522 lung) was less than 10 nM, the TGI (NCI-H522 lung) was less than 10 nM and the GI50 (NCI/ADR-RES ovarian) was less than 13.9 nM. The TGI (NCI/ADR-RES ovarian) was 3840 nM, the GI50 (OVCAR-3 ovarian) was less than 10 nM and the TGI (OVCAR-3 ovarian) was 120 nM. It also gave a GI50 (OVCAR-4 ovarian) of 1750 nM, a TGI (OVCAR-4 ovarian) greater than 100000 nM and a GI50 (OVCAR-5 ovarian) of less than 17.9 nM. It also gave a TGI (OVCAR-5 ovarian) greater than 100000 nM, a GI50 (OVCAR-8 ovarian) of less than 10 nM and a TGI (OVCAR-8 ovarian) of less than 10 nM. It also gave a GI50 (PC-3 prostate) of less than 10 nM, a TGI (PC-3 prostate) greater than 100000 nM and a GI50 (RPMI-8226 leukemia) of less than 10 nM. It also gave a TGI (RPMI-8226 leukemia) greater than 100000 nM, a GI50 (SF-268 CNS) of less than 20.7 nM and a TGI (SF-268 CNS) greater than 100000 nM. It also gave a GI50 (SF-295 CNS) of less than 10 nM, a TGI (SF-295 CNS) greater than 100000 nM and a GI50 (SF-539 CNS) of less than 10 nM. For the same compound, the TGI (SF-539 CNS) was less than 10 nM, the GI50 (SK-MEL-2 melanoma) was 30.9 nM and the TGI (SK-MEL-2 melanoma) was greater than 100000 nM. It also gave a GI50 (SK-MEL-28 melanoma) of 1700 nM, a TGI (SK-MEL-28 melanoma) greater than 100000 nM and a GI50 (SK-MEL-5 melanoma) of less than 10 nM. The TGI (SK-MEL-5 melanoma) was 38.7 nM, the GI50 (SK-OV-3 ovarian) was less than 12.1 nM and the TGI (SK-OV-3 ovarian) was greater than 100000 nM. The GI50 (SN12C renal) was less than 15 nM, the TGI (SN12C renal) was greater than 100000 nM and the GI50 (SNB-19 CNS) was less than 26.7 nM. It also gave a TGI (SNB-19 CNS) greater than 100000 nM, a GI50 (SNB-75 CNS) of less than 10 nM and a TGI (SNB-75 CNS) greater than 100000 nM. The GI50 (SR leukemia) was less than 10 nM, the GI50 (SW-620 colon) was less than 10.9 nM and the TGI (SW-620 colon) was greater than 100000 nM. The GI50 (T-47D breast) was greater than 100000 nM, the TGI (T-47D breast) was greater than 100000 nM and the GI50 (TK-10 renal) was greater than 100000 nM. It also gave a TGI (TK-10 renal) greater than 100000 nM, a GI50 (U251 CNS) of less than 10 nM and a TGI (U251 CNS) greater than 100000 nM. It also gave a GI50 (UACC-257 melanoma) of 1870 nM, a TGI (UACC-257 melanoma) greater than 100000 nM and a GI50 (UACC-62 melanoma) of less than 10 nM. It also gave a TGI (UACC-62 melanoma) greater than 100000 nM, a GI50 (UO-31 renal) of less than 14 nM and a TGI (UO-31 renal) greater than 100000 nM.
